One series concerns Osteoclast. The experiment in a line: Effect on bone-resorbing function of osteoclast derived from M-CSF/RANKL-induced ICR mouse BMDM assessed as change in size of resorption pit area at 5 uM after 2 days by hematoxylin staining-based assay. Format: functional, cell-based.
Series [1] deals with BMDM. The experiment in a line: Inhibition of M-CSF/RANKL-induced osteoclast differentiation in ICR mouse BMDM assessed as downregulation of Dcstamp mRNA expression at 5 uM by qRT-PCR method. Format: functional, cell-based. Background: Real-time PCR tracks product formation cycle by cycle.
Series [2] deals with BMDM. The experiment in a line: Growth inhibition of ICR mouse BMDM up to 10 uM after 3 days by MTT assay. The series is classed as cell-based. The settings on record: 72 h.
The subject of series [3] is BMDM. The experiment in a line: Inhibition of M-CSF/RANKL-induced osteoclast differentiation in ICR mouse BMDM assessed as downregulation of Acp5 mRNA expression at 5 uM by qRT-PCR method. The series is classed as functional, cell-based.
The subject of series [4] is BMDM. The experiment in a line: Inhibition of M-CSF/RANKL-induced osteoclast differentiation in ICR mouse BMDM at 1 uM after 4 days by TRAP staining method relative to control. The series is classed as functional. Conditions: 96 h.
Series [5] deals with BMDM. The experiment in a line: Inhibition of RANKL-mediated decrease in Mafb mRNA expression in ICR mouse BMDM at 5 uM by qRT-PCR method. Format: functional, cell-based.
The test system of series [6] is BMDM. The experiment in a line: Inhibition of RANKL-induced ERK phosphorylation in ICR mouse BMDM at 5 uM preincubated for 1 hr followed by RANKL stimulation measured after 5 to 30 mins by Western blot method. Format: cell-based.
For series [7], the target named is MAP kinase p38 (Mus musculus) (UniProt P47811+O08911+Q9WUI1+Q9Z1B7). The experiment in a line: Inhibition of RANKL-induced p38 phosphorylation in ICR mouse BMDM at 5 uM preincubated for 1 hr followed by RANKL stimulation measured after 5 to 30 mins by Western blot method. Format: cell-based.
The target in series [8] is RAC-alpha serine/threonine-protein kinase (Mus musculus) (UniProt P31750). The experiment in a line: Inhibition of RANKL-induced AKT phosphorylation in ICR mouse BMDM at 5 uM preincubated for 1 hr followed by RANKL stimulation measured after 30 mins by Western blot method. The series is classed as cell-based.
In series [9] the test system is BMDM. The experiment in a line: Inhibition of M-CSF/RANKL-induced osteoclast differentiation in ICR mouse BMDM assessed as decrease in number of cells with nuclear Nfatc1 at 5 uM by rhodamine-conjugated phalloidin/DAPI staining-based immunofluorescence method. Format: functional, cell-based.
Series [10] concerns BMDM. The experiment in a line: Inhibition of RANKL-mediated decrease in Irf8 mRNA expression in ICR mouse BMDM at 5 uM by qRT-PCR method. Format: functional, cell-based.
Series [11] concerns BMDM. The experiment in a line: Inhibition of M-CSF/RANKL-induced osteoclast differentiation in ICR mouse BMDM assessed as downregulation of Nfatc1 expression at 5 uM after 3 days by Western blot method. The series is classed as functional, cell-based. On the technique in general: In western blotting, separated proteins are transferred to a membrane and probed.
The test system of series [12] is BMDM. The experiment in a line: Inhibition of M-CSF/RANKL-induced osteoclast differentiation in ICR mouse BMDM assessed as downregulation of Ctsk mRNA expression at 5 uM by qRT-PCR method. Format: functional, cell-based.
Series [13] deals with BMDM. The experiment in a line: Inhibition of M-CSF/RANKL-induced osteoclast differentiation in ICR mouse BMDM assessed as downregulation of Nfatc1 mRNA expression at 5 uM by qRT-PCR method. The series is classed as functional, cell-based.
Series [14] has as its system BMDM. The experiment in a line: Inhibition of M-CSF/RANKL-induced osteoclast differentiation in ICR mouse BMDM at 5 to 10 uM after 4 days by TRAP staining method. The series is classed as functional, cell-based.
The subject of series [15] is BMDM. The experiment in a line: Inhibition of RANKL-mediated decrease in Bcl6 mRNA expression in ICR mouse BMDM at 5 uM by qRT-PCR method. Format: functional, cell-based.

Structures are written as SMILES. The source made the active and inactive calls. The rule behind the calls is not given here.

RAC-alpha serine/threonine-protein kinase (Mus musculus), sequence (P31750 whole entry): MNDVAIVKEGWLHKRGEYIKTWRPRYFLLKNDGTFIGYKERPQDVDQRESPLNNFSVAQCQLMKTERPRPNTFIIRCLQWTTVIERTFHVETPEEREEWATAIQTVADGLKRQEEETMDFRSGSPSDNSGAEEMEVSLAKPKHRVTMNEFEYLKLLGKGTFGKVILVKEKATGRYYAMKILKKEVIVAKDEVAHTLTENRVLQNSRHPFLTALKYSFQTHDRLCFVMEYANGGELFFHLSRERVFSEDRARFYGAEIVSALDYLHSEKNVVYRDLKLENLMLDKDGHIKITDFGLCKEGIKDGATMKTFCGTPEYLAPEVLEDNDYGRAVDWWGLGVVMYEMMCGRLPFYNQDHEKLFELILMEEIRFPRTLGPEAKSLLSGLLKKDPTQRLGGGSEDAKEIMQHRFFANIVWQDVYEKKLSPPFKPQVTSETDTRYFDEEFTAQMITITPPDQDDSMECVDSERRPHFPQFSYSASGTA

As usually defined, the inhibition is the drop in the measured response relative to a control, in per cent. For `COC(=O)[C@]1(O)C[C@@H](OC(=O)/C=C/c2ccc(O)c(O)c2)[C@H](O)[C@H](OC(=O)/C=C/c2ccc(O)c(O)c2)C1`, in the series on Osteoclast, the result was inactive. Besides, the inhibition result (in the series on BMDM [1]; with BMDM [3]; in the series with BMDM [5]; in the series on BMDM [6]; in series [7]; in series [8]) was “Active” throughout. The inhibition result in the series with BMDM [9], in the series with BMDM [10], with BMDM [11], in the series with BMDM [12], in the series with BMDM [13] and with BMDM [14] was “Active” each time. In addition, the inhibition entry in the series on BMDM [15] is “Active”. Also, in the series with BMDM [2], the “growth inhibition (GI)” value is listed as “Non-Toxic”. Further, in the series on BMDM [4], testing at 1 µM gave an inhibition of 78%.

These data come from ChEMBL document CHEMBL4118133, “Inhibitory effects of methyl-3,5-di-O-caffeoyl-epi-quinate on RANKL-induced osteoclast differentiation” (Bioorg Med Chem Lett, 2018).
